Test results from patent publication US7795226B2, “Control of radiation injury” (Biotempt B.V., priority 2006, dated 2010).
Several values for one entry are separate records, joined by “and”; a condition that tells them apart may be missing. Equal entries are not always repeated.

What was measured:
Assay type in all cases: in vivo
[1] = test system: renal ischemia reperfusion in mice; assay: mouse renal ischemia reperfusion test; design: BUN after 25 minutes renal ischemia, mean / Urea levels in dose-response experiment: unit not given here
Method in brief: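 In anesthetized mice kept at 37° C, the left renal pedicle was clamped for 25 min and the right kidney removed after reperfusion. Peptide in saline was given i.v. (5 mg/kg; other series 0.3–30 mg/kg) 5 min before clamping and 5 min before release, with PBS as control. Mortality and BUN were measured at 2, 24 and 72 h; P values were calculated by Mann-Whitney U-test.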

[2] = test system: LPS (E. coli 026:B6)-induced septic shock in BALB/c mice; assay: LPS-induced septic shock, single dose of peptide
Method in brief: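 Female BALB/c mice (8–12 weeks, SPF) received 150–300 μg LPS (E. coli 026:B6) i.p., doses set to give 80–100% mortality in 24–72 h. Peptides in PBS were given i.p. once at 5 mg/kg, 2 h or 24 h after LPS; PBS i.p. controls. Sickness scored 0–5 or dead.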

[3] = test system: high dose LPS (E. coli 026:B6)-induced septic shock in BALB/c mice; assay: high dose LPS-induced septic shock, peptide administered twice; conditions: peptide twice (t = 2 and 24 hours) 5 mg/kg
Method in brief: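 Female BALB/c mice (8–12 weeks) given high-dose LPS (E. coli 026:B6) i.p., predetermined to cause 80–100% mortality in 24–72 h. Peptides in PBS at 5 mg/kg i.p. at 2 and 24 h after LPS; sickness scored 0–5 or dead.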

[4] = 2 hours after reperfusion, 5 mg/kg i.v.
[5] = 24 hours after reperfusion, 5 mg/kg i.v.
[6] = 72 hours after reperfusion, 5 mg/kg i.v.
[7] = t = 0 hr (before clamping), 5 mg/kg i.v.
[8] = LPS dose 7**, single dose 5 mg/kg
[9] = LPS dose 7*, single dose 5 mg/kg
[10] = LPS dose 8, single dose 5 mg/kg
[11] = LPS dose 8, single dose 5 mg/kg, 5 mg/kg
[12] = LPS dose 9, single dose 5 mg/kg
[13] = LPS dose 9, single dose 5 mg/kg, 5 mg/kg
[14] = LPS dose 10, single dose 5 mg/kg
[15] = LPS dose 10, single dose 5 mg/kg, 5 mg/kg

Q: With VLPALP (hexamer peptide) as the substance, how does the “BUN after 25 minutes renal ischemia, mean” value (“BUN … mean” below) [1, 4] read?
A: 16.24

Q: And the “BUN … mean” value [1, 5]?
A: 62.4

Q: What about the “BUN … mean” value [1, 6] of the same substance?
A: 47.05

Q: What about the “BUN … mean” value [1, 7] of the same substance?
A: 8.423

Q: What about the “protective effect against LPS-induced sepsis (in words)” value ([2]; 5 mg/kg i.p.) of the same substance?
A: marked protective effect

Q: What about the “mice with sickness score 1, effect at t = 24 hours” value [2, 8] of the same substance?
A: 5

Q: And the “mice with sickness score 1, effect at t = 48 hours” value [2, 8]?
A: 5

Q: And the “mice with sickness score 2, effect at t = 24 hours” value [2, 8]?
A: 1

Q: What about the “mice with sickness score 2, effect at t = 48 hours” value [2, 8] of the same substance?
A: 1

Q: What about the “mice with sickness score 1, effect at t = 24 hours” value [2, 9] of the same substance?
A: 4

Q: And the “mice with sickness score 1, effect at t = 48 hours” value [2, 9]?
A: 5

Q: And the “mice with sickness score 2, effect at t = 24 hours” value [2, 9]?
A: 2

Q: And the “mice with sickness score 2, effect at t = 48 hours” value [2, 9]?
A: 1

Q: What about the “mice with sickness score 0, effect at t = 48 hours” value [2, 10] of the same substance?
A: 2

Q: What about the “mice with sickness score 3, effect at t = 48 hours” value [2, 10] of the same substance?
A: 1

Q: What about the “mice with sickness score 1, effect at t = 24 hours” value [2, 11] of the same substance?
A: 3 and 2

Q: And the “mice with sickness score 1, effect at t = 48 hours” value [2, 11]?
A: 3 and 5

Q: And the “mice with sickness score 2, effect at t = 48 hours” value [2, 11]?
A: 2 and 1

Q: What about the “mice scored D (dead), effect at t = 48 hours” value [2, 12] of the same substance?
A: 1

Q: What about the “mice with sickness score 1, effect at t = 24 hours” value [2, 12] of the same substance?
A: 2

Q: What about the “mice with sickness score 3, effect at t = 48 hours” value [2, 12] of the same substance?
A: 1

Q: And the “mice with sickness score 4, effect at t = 24 hours” value [2, 12]?
A: 1

Q: What about the “mice with sickness score 5, effect at t = 48 hours” value [2, 12] of the same substance?
A: 2

Q: What about the “mice with sickness score 2, effect at t = 24 hours” value [2, 13] of the same substance?
A: 3 and 4

Q: What about the “mice with sickness score 2, effect at t = 48 hours” value [2, 13] of the same substance?
A: 2 and 1

Q: And the “mice with sickness score 3, effect at t = 24 hours” value [2, 13]?
A: 1 and 2

Q: What about the “mice scored D (dead), effect at t = 48 hours” value [2, 14] of the same substance?
A: 2

Q: What about the “mice with sickness score 2, effect at t = 48 hours” value [2, 14] of the same substance?
A: 2

Q: And the “mice with sickness score 3, effect at t = 48 hours” value [2, 14]?
A: 2

Q: And the “mice with sickness score 5, effect at t = 48 hours” value [2, 14]?
A: 1

Q: What about the “mice with sickness score 1, effect at t = 48 hours” value [2, 15] of the same substance?
A: 3 and 2

Q: What about the “mice with sickness score 2, effect at t = 24 hours” value [2, 15] of the same substance?
A: 3 and 4

Q: And the “mice with sickness score 4, effect at t = 24 hours” value [2, 15]?
A: 3 and 2

Q: And the “mice scored D (dead), effect at t = 48 hours” value ([3]; LPS dose 10.5)?
A: 5

Q: And the “mice with sickness score 5, effect at t = 24 hours” value ([3]; LPS dose 10.5)?
A: 5

Q: What about the “mice scored D (dead), effect at t = 48 hours” value ([3]; LPS dose 11) of the same substance?
A: 6

Q: What about the “mice with sickness score 4, effect at t = 24 hours” value ([3]; LPS dose 11) of the same substance?
A: 2

Q: And the “mice with sickness score 4, effect at t = 48 hours” value ([3]; LPS dose 11)?
A: 1

Q: And the “mice with sickness score 5, effect at t = 24 hours” value ([3]; LPS dose 11)?
A: 4

Q: Which “BUN concentration versus the PBS control group (in words)” value ([1]; 5 mg/kg i.v.) does the source give for MTR here?
A: no reducing effect on BUN concentration

Q: What about the “mortality versus the PBS control group (in words)” value ([1]; 5 mg/kg i.v.) of the same substance?
A: significant reduction of mortality

Q: And the “mortality at 72 hours post-reperfusion” value ([1]; 5 mg/kg i.v. before and after 25 minutes clamping, dead/total)?
A: 4/10

Q: And the “BUN … mean” value [1, 4]?
A: 17.13

Q: What about the “BUN … mean” value [1, 5] of the same substance?
A: 66.23

Q: And the “BUN … mean” value [1, 6]?
A: 104.0167

Q: What about the “BUN concentration versus PBS (in words)” value ([1]; at 72 hours post-reperfusion, 5 mg/kg i.v.) of the same substance?
A: significantly raise BUN levels

Q: And the “BUN … mean” value [1, 7]?
A: 8.404

Q: What about the “mice scored D (dead), effect at t = 48 hours” value [2, 8] of the same substance?
A: 3

Q: And the “mice with sickness score 1, effect at t = 48 hours” value [2, 8]?
A: 3

Q: And the “mice with sickness score 2, effect at t = 24 hours” value [2, 8]?
A: 1

Q: What about the “mice with sickness score 3, effect at t = 24 hours” value [2, 8] of the same substance?
A: 3

Q: And the “mice with sickness score 4, effect at t = 24 hours” value [2, 8]?
A: 1

Q: And the “mice with sickness score 5, effect at t = 24 hours” value [2, 8]?
A: 1

Q: What about the “mice scored D (dead), effect at t = 48 hours” value [2, 9] of the same substance?
A: 1

Q: And the “mice with sickness score 3, effect at t = 24 hours” value [2, 9]?
A: 3

Q: What about the “mice with sickness score 4, effect at t = 24 hours” value [2, 9] of the same substance?
A: 3

Q: What about the “mice with sickness score 4, effect at t = 48 hours” value [2, 9] of the same substance?
A: 2

Q: And the “mice with sickness score 5, effect at t = 48 hours” value [2, 9]?
A: 3

Q: What about the “mice scored D (dead), effect at t = 24 hours” value [2, 14] of the same substance?
A: 1

Q: And the “mice scored D (dead), effect at t = 48 hours” value [2, 14]?
A: 3

Q: And the “mice with sickness score 1, effect at t = 48 hours” value [2, 14]?
A: 2

Q: And the “mice with sickness score 3, effect at t = 24 hours” value [2, 14]?
A: 2

Q: And the “mice with sickness score 4, effect at t = 24 hours” value [2, 14]?
A: 3

Q: What about the “mice with sickness score 5, effect at t = 48 hours” value [2, 14] of the same substance?
A: 1

Q: And the “mice with sickness score 1, effect at t = 24 hours” value ([3]; LPS dose 10.5)?
A: 4

Q: What about the “mice with sickness score 1, effect at t = 48 hours” value ([3]; LPS dose 10.5) of the same substance?
A: 5

Q: And the “mice with sickness score 2, effect at t = 24 hours” value ([3]; LPS dose 10.5)?
A: 1

Q: What about the “mice with sickness score 1, effect at t = 24 hours” value ([3]; LPS dose 11) of the same substance?
A: 6

Q: What about the “mice with sickness score 1, effect at t = 48 hours” value ([3]; LPS dose 11) of the same substance?
A: 6
